From patent US11358954B2, “PPAR agonists, compounds, pharmaceutical compositions, and methods of use thereof” (Mitobridge, Inc., priority 2016, dated 2022)

What was measured:
[1] = Pharmacokinetic screening in male Wistar rats; details: in vivo, rat; for C0: read-out: IV PK C0; for clearance: read-out: IV PK Cl; for Vd: read-out: IV PK Vss; for bioavailability: 3.0 mpk po vs 1.0 mpk iv, read-out: Oral PK % F; for Cmax: read-out: Oral PK Cmax; for Tmax: read-out: Oral PK T max
Description: (§1) In this example, the PK profile of several PPARδ agonists disclosed herein in male CD-1 mice or Wistar rats was determined by the methods disclosed in Boxenbaum H. (1980) Interspecies variation in liver weight, hepatic blood flow and antipyrine intrinsic clearance in extrapolation of Benzodiazepines and phenytoin. J. Pharmacokinet Biopharm 8: 165-176. Similar methods can be used to analyze other compounds provided herein.
(§2) All compounds were separately administered to CD-1 mice at 1 mg/kg iv or 3 mg/kg po. The compounds were separately administered to male Wistar rats 1 mg/kg iv or 3 mg/kg po. The species M refers to mouse and R reports to rat in the following table. NA means not available.

[2] = biological target: T1, hERG (Homo sapiens, UniProt Q12809); experiment: hERG inhibition screen (patch clamp, peak hERG tail current); format: cell-based; details: for inhibition at 10 µM: human
T1 construct: expressed in transfected cells
T1 sequence (Q12809 whole entry): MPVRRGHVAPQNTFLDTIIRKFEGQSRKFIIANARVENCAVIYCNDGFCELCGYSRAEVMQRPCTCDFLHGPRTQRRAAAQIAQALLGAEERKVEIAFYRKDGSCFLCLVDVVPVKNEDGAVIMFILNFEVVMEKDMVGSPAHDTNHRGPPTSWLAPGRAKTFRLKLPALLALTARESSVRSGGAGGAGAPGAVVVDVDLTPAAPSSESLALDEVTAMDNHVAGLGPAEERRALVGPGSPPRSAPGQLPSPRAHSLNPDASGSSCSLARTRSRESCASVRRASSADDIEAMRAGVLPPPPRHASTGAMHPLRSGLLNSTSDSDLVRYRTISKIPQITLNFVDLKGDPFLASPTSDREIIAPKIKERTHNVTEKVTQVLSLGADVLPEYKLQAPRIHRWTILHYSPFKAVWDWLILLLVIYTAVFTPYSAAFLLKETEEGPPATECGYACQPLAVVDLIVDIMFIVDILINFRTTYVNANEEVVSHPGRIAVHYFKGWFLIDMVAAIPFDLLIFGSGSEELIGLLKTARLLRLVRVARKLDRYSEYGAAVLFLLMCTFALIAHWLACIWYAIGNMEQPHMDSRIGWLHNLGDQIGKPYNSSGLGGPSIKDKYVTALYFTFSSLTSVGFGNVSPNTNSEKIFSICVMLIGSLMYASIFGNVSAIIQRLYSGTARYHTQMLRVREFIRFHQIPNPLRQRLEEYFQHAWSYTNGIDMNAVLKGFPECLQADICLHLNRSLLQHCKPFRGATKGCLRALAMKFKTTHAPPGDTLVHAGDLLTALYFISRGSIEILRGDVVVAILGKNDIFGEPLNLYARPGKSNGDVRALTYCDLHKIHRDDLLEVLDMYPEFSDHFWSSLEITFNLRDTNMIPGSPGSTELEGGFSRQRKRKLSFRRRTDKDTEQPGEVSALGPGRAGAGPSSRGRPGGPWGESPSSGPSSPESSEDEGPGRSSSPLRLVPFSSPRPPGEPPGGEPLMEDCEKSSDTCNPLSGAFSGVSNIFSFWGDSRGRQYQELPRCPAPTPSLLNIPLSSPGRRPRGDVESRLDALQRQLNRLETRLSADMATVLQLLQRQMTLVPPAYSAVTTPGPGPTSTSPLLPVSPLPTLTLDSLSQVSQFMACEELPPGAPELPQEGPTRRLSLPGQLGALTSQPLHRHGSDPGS
Description: Cells were cultured in DMEM/F-12 medium supplemented with 10% fetal bovine serum and 400 μg/mL Geneticin. Cells were grown in 75 cm tissue culture flasks maintained at 37° C. with 5% CO2 and passaged every 3 days using 0.05/0.02% Trypsin/EDTA (confluency of <80%). For the purpose of electrophysiology, cells were seeded in 25 cm2 tissue culture flasks. Three day old cells were harvested using Trypsin/EDTA (0.025/0.01%) as detaching agent and resuspended in external recording solution.
Preweighed quantity of test item was dissolved in tissue culture grade DMSO to prepare a primary stock solution. The strength of the primary stock was 1000× of the intended highest test concentration. Subsequently, working stock solutions of appropriate strengths was prepared by dilution of primary stock with DMSO. The stock solutions were aliquoted into eppendorff tubes and stored at −20° C. freezer (<0° C.) until use. On the day of experiment, aliquots were thawed and used for preparing the assay solution (test solution).
Test solutions were prepared fresh by adding 4 μL of stock solution in to 3996 μL external recording solution such that the final DMSO concentration in the assay solution was 0.1% v/v. Upon addition, solution was inspected carefully against light by naked eye for any indications of precipitation.
Electrophysiological Procedures: • Electrophysiology Setup: Instrument: Port-A-Patch • Patch clamp type: Semiautomatic • Manufacturer: Nanion technologies, GmBH Germany • Electrophysiology chips: Glasscoated NPC-1 chips • Recording Condition: Room temperature • Compound Addition Protocol: Manual addition—20 μL of solution was added on one side of the chip, followed by withdrawal of 20 μL from the other side. This way of addition and withdrawal was repeated at least 4-5 times to ensure actual test concentration is reached. • Test Concentration Exposure Period: Cells were exposed to each test concentration for 3 min or till a steady state block was reached • Voltage Protocol: −40 mV subtraction pulse for 0.5 sec; +40 mV activation pre-pulse for 2 sec; −40 mV test pulse for 2 sec and −80 mV holding potential repeated at every 10 sec • Assay end point: Peak hERG tail current recorded when the voltage was reduced from +40 mV to −40 mV.
The steady state current after the application of 0.1% DMSO was considered as baseline (control current). Steady state current obtained at the end of each test concentration addition was used to calculate the % hERG current inhibited at each concentration. Any rundown due to vehicle addition was corrected to calculate % hERG current inhibition. Each cell acted as its own control. Average current of last 3-5 sweeps of acceptable quality was considered for calculation of % inhibition. Sweeps with artifacts and noise were omitted while calculation.

[3] = Pharmacokinetic screening in male CD-1 mice; format: in vivo; details: mouse; for C0: read-out: IV PK C0; for Vd: read-out: IV PK Vss; for bioavailability: read-out: Oral PK % F; for Cmax: read-out: Oral PK Cmax; for Tmax: read-out: Oral PK T max
Description: as §1, §2

[4] = biological target: T2, Human PPARδ (Homo sapiens, UniProt Q03181); experiment: PPARδ activity screen (GAL4-PPARδ LBD luciferase transactivation in CV-1 cells); format: cell-based; details: 24 h compound treatment, luciferase reporter
T2 construct: (PPARδ amino acid 128 to C-terminus); expressed in transfected cells; host or cells: CV-1 cells
T2 sequence (Q03181 128-441 limits assumed): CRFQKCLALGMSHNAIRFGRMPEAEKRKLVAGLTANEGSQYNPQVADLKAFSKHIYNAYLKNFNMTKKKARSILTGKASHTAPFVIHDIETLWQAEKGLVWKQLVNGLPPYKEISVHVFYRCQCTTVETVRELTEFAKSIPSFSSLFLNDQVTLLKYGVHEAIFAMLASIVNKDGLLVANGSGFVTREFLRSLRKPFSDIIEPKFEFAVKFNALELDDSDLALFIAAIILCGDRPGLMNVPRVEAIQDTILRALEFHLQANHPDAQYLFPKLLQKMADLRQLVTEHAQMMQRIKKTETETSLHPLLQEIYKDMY
Description: CV-1 cells were grown in DMEM+10% charcoal stripped FCS. Cells were seeded into 384-well plates the day before transfection to give a confluency of 50-80% at transfection. A total of […] containing 0.64 micrograms pCMX-PPARDelta LBD, 0.1 micrograms pCMXβGal, 0.08 micrograms pGLMH2004 reporter and 0.02 micrograms pCMX empty vector was transfected per well using FuGene transfection reagent according to the manufacturer's instructions (Roche). Cells were allowed to express protein for 48 h followed by addition of compound.
Human PPARδ was used to PCR amplify the PPARδ LBD. […] Ensuing fusions were verified by sequencing.
All compounds were dissolved in DMSO and diluted 1:1000 upon addition to the cells. Compounds were tested in quadruple in concentrations ranging from 0.001 to 100 μM. Cells were treated with compound for 24 h followed by luciferase assay. […]
Medium including test compound was aspirated and washed with PBS. […] Light emission was quantified by counting on a Perkin Elmer Envision reader. […] Beta-galactosidase assays were performed in the microwell plates using a kit from Promega and read in a Perkin Elmer Envision reader. […]
The activity of a compound is calculated as fold induction compared to an untreated sample. […] EC50 values were calculated via non-linear regression using GraphPad PRISM (GraphPad Software, San Diego, Calif.).

[5] = 1 mg/kg, 1.0 mpk iv, read-out: IV PK AUC (0-inf)
[6] = 1 mg/kg, 1.0 mpk iv, read-out: IV PK Beta T½ (converted)
[7] = 3 mg/kg, 3.0 mpk po, read-out: Oral PK AUC (0-inf)
[8] = male, CD-1, in vivo, 1 mg/kg, 1.0 mpk iv, read-out: IV PK AUC (0-inf)
[9] = male, CD-1, in vivo, 1 mg/kg, 1.0 mpk iv
[10] = male, CD-1, in vivo, 3 mg/kg, 3.0 mpk po vs 1.0 mpk iv
[11] = male, CD-1, in vivo, 3 mg/kg, 3.0 mpk po, read-out: Oral PK AUC (0-inf)
[12] = male, CD-1, in vivo, 3 mg/kg, 3.0 mpk po
[13] = male, CD-1, in vivo, 3 mg/kg, 3.0 mpk po, read-out: Oral PK T½ (converted)
[14] = 3 mg/kg, 3.0 mpk po, read-out: Oral PK T½ (converted)
[15] = male, CD-1, in vivo, 1 mg/kg, 1.0 mpk iv, read-out: IV PK Beta T½ (converted)

Row | Structure (SMILES) | AUC(0-inf) [1, 5] [ng·h/mL] | C0 ([1]; 1 mg/kg, 1.0 mpk iv) [ng/mL] | clearance ([1]; 1 mg/kg, 1.0 mpk iv) [mL/min/kg] | Vd ([1]; 1 mg/kg, 1.0 mpk iv) [L/kg] | bioavailability ([1]; 3 mg/kg) [%] | AUC(0-inf) [1, 7] [ng·h/mL] | Cmax ([1]; 3 mg/kg, 3.0 mpk po) [ng/mL] | Tmax ([1]; 3 mg/kg, 3.0 mpk po) [h] | AUC(0-inf) [3, 8] [ng·h/mL] | C0 [3, 9] [ng/mL] | Vd [3, 9] [L/kg] | bioavailability [3, 10] [%] | AUC(0-inf) [3, 11] [ng·h/mL] | Cmax [3, 12] [ng/mL] | Tmax [3, 12] [h] | half-life [3, 13] [h] | IV PK Cl ([3]; 1.0 mpk iv) [mL/min/kg] | half-life [3, 15] [h] | inhibition at 10 µM [2] [%] | hERG % Inhibition at 10 μM [2] [%] | also measured
1 | C[C@H](CCCOc1ccccc1Cn1c(Cl)cnc1-c1ccc(C(F)(F)F)cc1)CC(=O)O [Compound 2b, (R)-6-(2-((5-chloro-2-(4-(trifluoromethyl)phenyl)-1H-imidazol-1-yl)methyl)phenoxy)-3-methylhexanoic acid] | 2970 | 2120 | 5.8 | 1.2 | 87 | 7790 | 2380 | 0.3 | 1060 | 810 | 3.1 | 100 | 3880 | 2950 | 0.5 | 4.3 | 16 | 3.5 |  | 3.00 | half-life [1, 6]: 4.8 h; half-life [1, 14]: 4.1 h
2 | C[C@H](CCCOc1ccccc1Cn1c(C#N)cnc1-c1ccc(C(F)(F)F)cc1)CC(=O)O [Compound 2c, (3R)-6-(2-((5-cyano-2-(4-(trifluoromethyl)phenyl)-1H-imidazol-1-yl)methyl)phenoxy)-3-methylhexanoic acid] |  |  |  |  |  |  |  |  |  |  |  |  |  |  |  |  |  |  |  | 2.50 | 
3 | C[C@H](CCCOc1ccccc1Cn1c(C(F)(F)F)cnc1-c1ccc(F)cc1)CC(=O)O [Compound 2e, (3R)-6-(2-((2-(4-fluorophenyl)-5-(trifluoromethyl)-1H-imidazol-1-yl)methyl)phenoxy)-3-methylhexanoic acid] |  |  |  |  |  |  |  |  |  |  |  |  |  |  |  |  |  |  |  |  | EC50 [4]: 25 nM
4 | C[C@H](CCCOc1ccccc1Cn1c(C(F)(F)F)cnc1-c1ccc(C#N)cc1)CC(=O)O [Compound 2f, (R)-6-(2-((2-(4-cyanophenyl)-5-(trifluoromethyl)-1H-imidazol-1-yl)methyl)phenoxy)-3-methylhexanoic acid] | 4090 | 1820 | 3 | 3.9 | 100 | 14900 | 4330 | 0.3 | 6730 | 2450 | 0.6 |  | 14700 | 4240 | 0.3 | 4.9 | 2.5 | 4.1 | 3.5 |  | half-life [1, 14]: 10.3 h; Oral PK % F ([3]; 3.0 mpk po vs 1.0 mpk iv): 73%
5 | C[C@H](CCCOc1ccccc1Cn1c(C(F)(F)F)cnc1-c1ccc(OC(F)(F)F)cc1)CC(=O)O [Compound 2g, (3R)-3-methyl-6-(2-((2-(4-(trifluoromethoxy)phenyl)-5-(trifluoromethyl)-1H-imidazol-1-yl)methyl)phenoxy)hexanoic acid] |  |  |  |  |  |  |  |  |  |  |  |  |  |  |  |  |  |  |  | 2.00 | 
6 | O=C(O)CCCCCOc1ccccc1Cn1c(C(F)(F)F)cnc1-c1ccc(-c2ccco2)cc1 [Compound 2h, 6-(2-((2-(4-(furan-2-yl)phenyl)-5-(trifluoromethyl)-1H-imidazol-1-yl)methyl)phenoxy)hexanoic acid] |  |  |  |  |  |  |  |  |  |  |  |  |  |  |  |  |  |  | 7 |  | EC50 [4]: 2 nM
7 | C[C@H](CCCOc1ccccc1Cn1c(C(F)(F)F)cnc1-c1ccc(-c2ccco2)cc1)CC(=O)O [Compound 2i, (3R)-6-(2-((2-(4-(furan-2-yl)phenyl)-5-(trifluoromethyl)-1H-imidazol-1-yl)methyl)phenoxy)-3-methylhexanoic acid] |  |  |  |  |  |  |  |  |  |  |  |  |  |  |  |  |  |  |  | 2.30 | 

The next lines start with results.

Row | AUC(0-inf) [1, 5] [ng·h/mL] | C0 ([1]; 1 mg/kg, 1.0 mpk iv) [ng/mL] | clearance ([1]; 1 mg/kg, 1.0 mpk iv) [mL/min/kg] | Vd ([1]; 1 mg/kg, 1.0 mpk iv) [L/kg] | bioavailability ([1]; 3 mg/kg) [%] | AUC(0-inf) [1, 7] [ng·h/mL] | Cmax ([1]; 3 mg/kg, 3.0 mpk po) [ng/mL] | Tmax ([1]; 3 mg/kg, 3.0 mpk po) [h] | AUC(0-inf) [3, 8] [ng·h/mL] | C0 [3, 9] [ng/mL] | Vd [3, 9] [L/kg] | bioavailability [3, 10] [%] | AUC(0-inf) [3, 11] [ng·h/mL] | Cmax [3, 12] [ng/mL] | Tmax [3, 12] [h] | half-life [3, 13] [h] | IV PK Cl ([3]; 1.0 mpk iv) [mL/min/kg] | half-life [3, 15] [h] | Structure (SMILES) | inhibition at 10 µM [2] [%] | hERG % Inhibition at 10 μM [2] [%] | also measured
8 | 5040 | 1530 | 3.8 | 1.7 | 100 | 16100 | 1200 | 2.8 | 3310 | 740 | 1.9 | 70 | 6960 | 1260 | 0.3 | 3.8 | 5.0 |  | C[C@H](CCCOc1ccccc1Cn1c(C(F)(F)F)cnc1-c1ccc(C(F)(F)F)cc1)CC(=O)O [Compound 2a, (3R)-3-methyl-6-(2-((5-(trifluoromethyl)-2-(4-(trifluoromethyl)phenyl)-1H-imidazol-1-yl)methyl)phenoxy)hexanoic acid] | 6 |  | half-life [1, 6]: 7.1 h; IV PK Beta T½ ([3]; 1.0 mpk iv): 5.8 h
9 |  |  |  |  |  |  |  |  | 5620 | 1720 | 1.4 | 61 | 5620 | 2830 | 0.3 | 10 |  | 6.3 | C[C@H](CCCOc1ccccc1Cn1c(C(F)(F)F)cnc1-c1ccc(Cl)cc1)CC(=O)O [Compound 2d, (3R)-6-(2-((2-(4-chlorophenyl)-5-(trifluoromethyl)-1H-imidazol-1-yl)methyl)phenoxy)-3-methylhexanoic acid] |  | 5.00 | clearance ([3]; male, CD-1, in vivo, 1 mg/kg, 1.0 mpk iv, read-out: IV PK Cl): 5.4 mL/min/kg
